Measured values from patent publication US9493506B2 (Enanta Pharmaceuticals, Inc., priority 2010, dated 2016).

What was measured:
Type in all cases: cell-based, hepatitis C virus (genotype 1a-H77)
[1] = tested on: HCV replicon with a D168V mutation in a 1a-H77 background; assay: transient replicon assay, D168V mutation in 1a-H77 background; settings: Hepatitis C virus, read-out: EC50 in a transient replicon assay with a D168V mutation in a 1a-H77 background
Description: (§1) Replicon cell lines can be maintained in Dulbecco's modified Eagles medium (DMEM) containing 100 IU/ml penicillin, […] streptomycin (Invitrogen), […] G418 (Invitrogen) and 10% (v/v) fetal bovine serum (FBS). Replicon-containing cells can be seeded into 96 well plates at a density of 5000 cells per well in 100 μl DMEM containing 5% FBS. The next day, the compound can be initially diluted in dimethyl sulfoxide (DMSO) to generate a 200× stock of the inhibitor in a series of 8 half-log dilutions. The dilution series can then be diluted 100-fold in the medium containing 5% FBS. One hundred microliters of medium with the inhibitor can be added to each well of the overnight cell culture plate already containing 100 μl of DMEM with 5% FBS. In assays where the protein binding effect on inhibitor potency is assessed, the medium from the overnight cell culture plates can be replaced with 200 μl DMEM containing 40% human plasma (Innovative Research) plus 5% FBS as well as compound. The cells can be grown for 4 days in tissue culture incubators. The inhibitory effects of compounds against the replicons can be determined by measuring either the level of luciferase or HCV RNA. The luciferase assay can be conducted using a Luciferase Assay System kit (Promega) following the manufacturer's instructions. Briefly, the cell culture medium is removed and wells are washed with 200 μl of phosphate-buffered saline. To each well Passive Lysis buffer (Promega, Wis.) is added and the plates are incubated for 30 min with rocking to lyse the cells. Luciferin solution (50 μl, Promega) is added, and luciferase activity is measured with a Victor II luminometer (Perkin-Elmer). To determine HCV RNA levels, RNA extractions can be performed using the CellsDirect kit (Invitrogen), and the HCV RNA copy number can be measured using the SuperScript III Platinum One-Step qRT-PCR system (Invitrogen) and primers specific to the HCV 5′ nontranslated region. Cytotoxicity can be determined by the 3-[4,5-dimethylhiazol-2-yl]-2,5-diphenyltetrazolium bromide (MTT) colorimetric assay as follows. Replicon cells is plated in 96-well plates (4000 cells per well), the next day compound dilutions are added as in the activity assay, and the cells are grown in the presence of the inhibitors for 4 days. The MTT solution is diluted in DMEM containing 5% FBS and 60 μl of the solution is added to the cells. After 4 hrs, the cells are solubilized by the addition of 30 […]μl SDS (20% in 0.02 N HCl). The plates are incubated overnight and the optical density can be measured at 570 nm. To determine compounds' EC50 and TD50, luciferase, RNA inhibition and MTT data can be analyzed using the GraphPad Prism 4 software (equation: sigmoidal dose-response—variable slope).
(§2) The 1a-H77 replicon for transient assays further differs from the replicon in the stable cell line in that it contains NS2 through NS5B in the second cistron. The 1b-N strain replicon contains NS3 through NS5B in the second cistron, with adaptive mutations E1202G in NS3 and S2204I in NS5A. Mutagenesis can be performed using the Stratagene QuikChange XL II site-directed mutagenesis kit. Mutants' sequences can be confirmed, plasmids can be linearized with Xba I restriction enzyme and used as template for in vitro transcription reactions to make mutant replicon RNA for transient transfections. In vitro transcription can be performed with the T7 Megascript kit (Ambion).
(§3) Transient replicon transfections can be performed essentially as described by Mo et al. (Antimicrob Agents Chemother (2005) 49(10):4305-4314) with slight modifications. Fifteen micrograms of template RNA can be used to electroporate 3×10^6 cells in a 200 μl volume in a 0.2 cm cuvette. The cells used for transient transfections can be Huh7 cells obtained by curing replicon-containing cells with IFN (Mo et al., supra). Electroporation can be done with a Gene Pulser II (Bio-Rad, CA) at 480V and 25 μF, using two manual pulses. […]

[2] = tested on: HCV replicon with a D168E mutation in a 1a-H77 background; assay: transient replicon assay, D168E mutation in 1a-H77 background; settings: Hepatitis C virus, read-out: EC50 in a transient replicon assay with a D168E mutation in a 1a-H77 background
Description: as §1, §2, §3

[3] = tested on: HCV replicon with a R155K mutation in a 1a-H77 background; assay: transient replicon assay, R155K mutation in 1a-H77 background; settings: Hepatitis C virus, read-out: EC50 in a transient replicon assay with a R155K mutation in a 1a-H77 background
Description: as §1, §2, §3

Structure (SMILES) | EC50 [1] | EC50 [2] | EC50 [3]
Cc1nc2cccc(F)c2nc1O[C@@H]1C[C@H]2C(=O)N[C@]3(C(=O)NS(=O)(=O)C4CC4)C[C@H]3/C=C\CCCCC[C@H](NC(=O)OC(C)(C)C)C(=O)N2C1 [Example 54, tert-butyl (2R,6S,13aS,14aR,16aS,Z)-14a-(cyclopropylsulfonylcarbamoyl)-2-(8-fluoro-3-methylquinoxalin-2-yloxy)-5,16-dioxo-1,2,3,5,6,7,8,9,10,11,13a,14,14a,15,16,16a-hexadecahydrocyclopropa[e]pyrrolo[1,2-a][1,4]diazacyclopentadecin-6-ylcarbamate] | 50 to 250 nM | 20 to 50 nM | 1 to 10 nM
Cc1cc(C(=O)N[C@H]2CCCCC/C=C\[C@@H]3C[C@@]3(C(=O)NS(=O)(=O)C3CC3)NC(=O)[C@@H]3C[C@@H](Oc4nc5ccccc5nc4C(F)(F)F)CN3C2=O)[nH]n1 [Example 13] | 250 to 1000 nM | > 100 nM | 10 to 25 nM
Cc1nc2ccc(F)cc2nc1O[C@@H]1C[C@H]2C(=O)N[C@]3(C(=O)NS(=O)(=O)C4(C)CC4)C[C@H]3/C=C\CCCCC[C@H](NC(=O)c3noc(C)c3C)C(=O)N2C1 [Example 24, N-((2R,6S,13aS,14aR,16aS,Z)-2-(7-fluoro-3-methylquinoxalin-2-yloxy)-14a-(1-methylcyclopropylsulfonylcarbamoyl)-5,16-dioxo-1,2,3,5,6,7,8,9,10,11,13a,14,14a,15,16,16a-hexadecahydrocyclopropa[e]pyrrolo[1,2-a][1,4]diazacyclopentadecin-6-yl)-4,5-dimethylisoxazole-3-carboxamide] | < 25 nM | < 3 nM | < 1 nM
CCc1nc2ccc(F)cc2nc1O[C@@H]1C[C@H]2C(=O)N[C@]3(C(=O)NS(=O)(=O)C4(C)CC4)C[C@H]3/C=C\CCCCC[C@H](NC(=O)OC(C)(C)C)C(=O)N2C1 [Example 125, tert-butyl (2R,6S,13aS,14aR,16aS,Z)-2-(3-ethyl-7-fluoroquinoxalin-2-yloxy)-14a-(1-methylcyclopropylsulfonylcarbamoyl)-5,16-dioxo-1,2,3,5,6,7,8,9,10,11,13a,14,14a,15,16,16a-hexadecahydrocyclopropa[e]pyrrolo[1,2-a][1,4]diazacyclopentadecin-6-ylcarbamate] | 25 to 50 nM | 3 to 20 nM | < 1 nM
CCc1nc2ccc(F)cc2nc1O[C@@H]1C[C@H]2C(=O)N[C@]3(C(=O)NS(=O)(=O)C4(C)CC4)C[C@H]3/C=C\CCCCC[C@H](NC(=O)c3cc(C4CC4)on3)C(=O)N2C1 [Example 151, 5-cyclopropyl-N-((2R,6S,13aS,14aR,16aS,Z)-2-(3-ethyl-7-fluoroquinoxalin-2-yloxy)-14a-(1-methylcyclopropylsulfonylcarbamoyl)-5,16-dioxo-1,2,3,5,6,7,8,9,10,11,13a,14,14a,15,16,16a-hexadecahydrocyclopropa[e]pyrrolo[1,2-a][1,4]diazacyclopentadecin-6-yl)isoxazole-3-carboxamide] | < 25 nM | 3 to 20 nM | 1 to 10 nM
CC1(S(=O)(=O)NC(=O)[C@@]23C[C@H]2/C=C\CCCCC[C@H](NC(=O)c2ccon2)C(=O)N2C[C@H](Oc4nc5cc(F)ccc5nc4C(F)(F)F)C[C@H]2C(=O)N3)CC1 [Example 109, N-((2R,6S,13aS,14aR,16aS,Z)-2-(7-fluoro-3-(trifluoromethyl)quinoxalin-2-yloxy)-14a-(1-methylcyclopropylsulfonylcarbamoyl)-5,16-dioxo-1,2,3,5,6,7,8,9,10,11,13a,14,14a,15,16,16a-hexadecahydrocyclopropa[e]pyrrolo[1,2-a][1,4]diazacyclopentadecin-6-yl)isoxazole-3-carboxamide] | < 25 nM | < 3 nM | < 1 nM
Cc1nc2cccc(F)c2nc1O[C@@H]1C[C@H]2C(=O)N[C@]3(C(=O)NS(=O)(=O)C4CC4)C[C@H]3/C=C\CCCCC[C@H](NC(=O)c3noc(C)c3C)C(=O)N2C1 [Example 57, N-((2R,6S,13aS,14aR,16aS,Z)-14a-(cyclopropylsulfonylcarbamoyl)-2-(8-fluoro-3-methylquinoxalin-2-yloxy)-5,16-dioxo-1,2,3,5,6,7,8,9,10,11,13a,14,14a,15,16,16a-hexadecahydrocyclopropa[e]pyrrolo[1,2-a][1,4]diazacyclopentadecin-6-yl)-4,5-dimethylisoxazole-3-carboxamide] | < 25 nM | 3 to 20 nM | < 1 nM
CC(C)(C)C(=O)N[C@H]1CCCCC/C=C\[C@@H]2C[C@@]2(C(=O)NS(=O)(=O)C2CC2)NC(=O)[C@@H]2C[C@@H](Oc3nc4ccccc4nc3C(C)(F)F)CN2C1=O [Example 4, (2R,6S,13aS,14aR,16aS,Z)—N-(cyclopropylsulfonyl)-2-(3-(1,1-difluoroethyl)quinoxalin-2-yloxy)-5,16-dioxo-6-pivalamido-1,2,3,5,6,7,8,9,10,11,13a,14,14a,15,16,16a-hexadecahydrocyclopropa[e]pyrrolo[1,2-a][1,4]diazacyclopentadecine-14a-carboxamide] | 50 to 250 nM | 3 to 20 nM | 1 to 10 nM
Cc1nc2ccc(F)cc2nc1O[C@@H]1C[C@H]2C(=O)N[C@]3(C(=O)NS(=O)(=O)C4CC4)C[C@H]3/C=C\CCCCC[C@H](NC(=O)c3noc(C)c3C)C(=O)N2C1 [Example 21, N-((2R,6S,13aS,14aR,16aS,Z)-14a-(cyclopropylsulfonylcarbamoyl)-2-(7-fluoro-3-methylquinoxalin-2-yloxy)-5,16-dioxo-1,2,3,5,6,7,8,9,10,11,13a,14,14a,15,16,16a-hexadecahydrocyclopropa[e]pyrrolo[1,2-a][1,4]diazacyclopentadecin-6-yl)-4,5-dimethylisoxazole-3-carboxamide] | < 25 nM | < 3 nM | < 1 nM
CCc1nc2cccc(F)c2nc1O[C@@H]1C[C@H]2C(=O)N[C@]3(C(=O)NS(=O)(=O)C4CC4)C[C@H]3/C=C\CCCCC[C@H](NC(=O)OC(C)(C)C)C(=O)N2C1 [Example 160, tert-butyl (2R,6S,13aS,14aR,16aS,Z)-14a-(cyclopropylsulfonylcarbamoyl)-2-(3-ethyl-8-fluoroquinoxalin-2-yloxy)-5,16-dioxo-1,2,3,5,6,7,8,9,10,11,13a,14,14a,15,16,16a-hexadecahydrocyclopropa[e]pyrrolo[1,2-a][1,4]diazacyclopentadecin-6-ylcarbamate] | 50 to 250 nM | 20 to 50 nM | 1 to 10 nM
CC(C)(C)OC(=O)N[C@H]1CCCCC/C=C\[C@@H]2C[C@@]2(C(=O)NS(=O)(=O)C2(C)CC2)NC(=O)[C@@H]2C[C@@H](Oc3nc4cc(F)ccc4nc3C(F)(F)F)CN2C1=O [Example 110, tert-butyl (2R,6S,13aS,14aR,16aS,Z)-2-(7-fluoro-3-(trifluoromethyl)quinoxalin-2-yloxy)-14a-(1-methylcyclopropylsulfonylcarbamoyl)-5,16-dioxo-1,2,3,5,6,7,8,9,10,11,13a,14,14a,15,16,16a-hexadecahydrocyclopropa[e]pyrrolo[1,2-a][1,4]diazacyclopentadecin-6-ylcarbamate] | 25 to 50 nM | 3 to 20 nM | < 1 nM
